Results reported in patent publication US9573954B2, “Pyrazolopyrimidine compounds” (University Health Network, priority 2012, dated 2017).
pIC50: −log10 of the molar value. Like-named read-outs stand apart in the source and are kept apart here.

Tests used:
[1] = system: colon cancer cells (HCT116); assay: Cancer cell line growth inhibition, Sulforhodamine B assay, HCT116; format: cell-based; settings: read-out: Cancer Cell Line GI50 Range HCT116
Description: (§1) Breast cancer cells (MDA-MB-231 and MDA-MB-468), colon cancer cells (HCT116) and ovarian cancer cells (PA-1 and OVCAR-3) were seeded (1000 to 4000 in 80 μl per well depending on the cell growth rate) into 96 well plates 24 hours before compound overlay. Compounds were prepared as 10 mM stock solutions in 100% DMSO which were diluted with DMEM (Dulbecco's Modified Eagle's Medium) cell growth Medium (Invitrogen, Burlington, ON, Canada) containing 10% FBS (Fetal Bovine Serum) to concentrations ranging from 50 nM to 250 μM. Aliquots (20 μl) from each concentration were overlaid to 80 μl of the pre-seeded cells in the 96 well plates to make final concentrations of 10 nM to 50 μM. The cells were cultured for 5 days before the Sulforhodamine B assay (SRB) was performed to determine the compound's cell growth inhibition activity.
(§2) Sulforhodamine B (purchased from Sigma, Oakville, ON, Canada) is a water-soluble dye that binds to the basic amino acids of the cellular proteins. Thus, colorimetric measurement of the bound dye provides an estimate of the total protein mass that is related to the cell number. the cells are fixed in situ by gently aspirating off the culture media and adding 50 μl ice cold 10% Trichloroacetic Acid (TCA) per well and incubate at 4° C. for 30-60 min, The plates are washed with H2O five times and allowed to air dry for 5 min. Addition of 50 μl 0.4% (w/v) SRB solution in 1% (v/v) acetic acid to each well and incubation for 30 min at RT completes the staining reaction. Following staining, plates are washed four times with 1% acetic acid to remove unbound dye and then allowed to air dry for 5 min. The stain is solubilized with 100 μl of 10 mM Tris pH 10.5 per well. Absorbance is read at 570 nm.
(§3) The percentage (%) of relative growth inhibition was calculated by comparing to DMSO treated only cells (100%). GI50's were determined for compounds with cytotoxic activity. The GI50 was calculated using GraphPad PRISM software (GraphPad Software, Inc., San Diego, Calif., USA).
(§4) In Table 1 below, GI50 value ranges for compound examples against breast cancer cell lines (MDA-MB-468), colon cancer cell lines (HCT116) and ovarian cancer cell lines (PA-1) are given.
In Table 2 below, GI50 value ranges for compound examples against breast cancer cell lines (MDA-MB-231), colon cancer cell lines (HCT116) and ovarian cancer cell lines (PA-1) are given.
(§5) In Table 3 below, GI50 value ranges for compound examples against breast cancer cell lines (MDA-MB-468), colon cancer cell lines (HCT116) and ovarian cancer cell lines (OVCAR-3) are given.

[2] = system: ovarian cancer cells (OVCAR-3); assay: Cancer cell line growth inhibition, Sulforhodamine B assay, OVCAR-3; format: cell-based; settings: read-out: Cancer Cell Line GI50 Range OVCAR-3
Description: as §1, §2, §3, §5

human TTK = molecular target: T1, human TTK (Homo sapiens, UniProt P33981); assay: TTK inhibition assay (indirect ELISA); format: biochemical; settings: 100 μM ATP; read-out: TTK IC50 Range
T1 construct: Active TTK was purchased from Invitrogen as an amino terminal GST fusion of full length human TTK; purchased Invitrogen
T1 sequence (P33981 1-857): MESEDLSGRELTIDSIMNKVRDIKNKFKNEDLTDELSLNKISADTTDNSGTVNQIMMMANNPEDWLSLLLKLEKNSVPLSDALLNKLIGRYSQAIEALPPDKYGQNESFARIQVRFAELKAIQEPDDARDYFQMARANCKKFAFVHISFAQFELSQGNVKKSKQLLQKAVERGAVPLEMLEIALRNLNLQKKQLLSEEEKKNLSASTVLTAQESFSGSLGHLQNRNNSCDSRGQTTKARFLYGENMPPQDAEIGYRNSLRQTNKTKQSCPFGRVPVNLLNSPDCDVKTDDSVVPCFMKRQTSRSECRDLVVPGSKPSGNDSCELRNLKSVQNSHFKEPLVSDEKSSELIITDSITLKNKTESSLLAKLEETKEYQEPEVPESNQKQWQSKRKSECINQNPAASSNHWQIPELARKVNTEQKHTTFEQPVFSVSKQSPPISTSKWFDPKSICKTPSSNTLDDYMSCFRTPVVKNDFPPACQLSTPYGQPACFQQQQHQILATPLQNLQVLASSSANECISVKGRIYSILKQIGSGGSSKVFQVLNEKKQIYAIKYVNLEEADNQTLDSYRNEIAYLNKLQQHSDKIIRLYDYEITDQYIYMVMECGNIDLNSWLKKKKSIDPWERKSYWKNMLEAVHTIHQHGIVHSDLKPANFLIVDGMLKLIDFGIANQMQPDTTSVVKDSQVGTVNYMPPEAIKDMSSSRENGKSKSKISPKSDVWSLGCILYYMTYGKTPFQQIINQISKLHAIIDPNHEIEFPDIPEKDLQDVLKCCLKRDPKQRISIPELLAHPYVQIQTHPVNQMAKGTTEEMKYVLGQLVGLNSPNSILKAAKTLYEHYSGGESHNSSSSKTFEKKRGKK
Procedure, shortened: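 Activity detected by indirect ELISA after compounds sat with full-length GST-TTK for 5 min prior to starting the reaction with ATP. IC50 came from a four-parameter logistic curve of % inhibition, calculated against background and uninhibited control wells.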

[3] = system: breast cancer cells (MDA-MB-468); assay: Cancer cell line growth inhibition, Sulforhodamine B assay, MDA-MB-468; format: cell-based; settings: read-out: Cancer Cell Line GI50 Range MDA-MB-468
Description: as §1, §2, §3, §4, §5

[4] = Homo sapiens, HCT-116, HCT116 colon cancer cell line
[5] = Homo sapiens, OVCAR-3, OVCAR-3 ovarian cancer cell line
[6] = Homo sapiens, MDA-MB-468, MDA-MB-468 breast cancer cell line

Compound | GI50 [1, 4] | GI50 [2, 5] | pIC50 (human TTK) | GI50 [3, 6] | GI50 ([1]; HCT116 colon cancer cell line) | GI50 ([2]; OVCAR-3 ovarian cancer cell line) | GI50 ([3]; MDA-MB-468 breast cancer cell line)
COc1cccc(Oc2cc(NCCN3CCOCC3)n3ncc(-c4ccc(C(=O)NC5CC5)c(C)c4)c3n2)c1 [Example C85] | 100 to 500 nM | 100 to 500 nM | > 7.00 | 100 to 500 nM |  |  | 
Cc1cc(-c2cnn3c(NCC4CCOCC4)cc(N4CCOC[C@H]4CO)nc23)ccc1C(=O)NC1CC1 [Example C87] | 100 to 500 nM | > 500 nM | > 7.00 | 100 to 500 nM |  |  | 
Cc1cc(-c2cnn3c(NCC4CCOCC4)cc(NC4(CO)CCOCC4)nc23)ccc1C(=O)NC1CC1 [Example C88] | > 500 nM | > 500 nM | > 7.00 | 100 to 500 nM |  |  | 
Cc1cc(-c2cnn3c(NCC4CCOCC4)cc(N[C@H](CO)C4CCOCC4)nc23)ccc1C(=O)NC1CC1 [Example C89] | 100 to 500 nM | > 500 nM | > 7.00 | > 500 nM |  |  | 
CCO[C@H]1COC[C@@H]1Nc1cc(NCC2CCOCC2)n2ncc(-c3ccc(C(=O)NC4CC4)c(C)c3)c2n1 [Example C90] | 100 to 500 nM | > 500 nM | > 7.00 | 100 to 500 nM |  |  | 
Cc1cc(-c2cnn3c(NCC4(CO)CCOCC4)cc(NC4CCCC4)nc23)ccc1C(=O)NC1CC1 [Example C92] | 100 to 500 nM | > 500 nM | > 7.00 | > 500 nM |  |  | 
Cc1cc(-c2cnn3c(NCC4(O)CCOCC4)cc(NC4CCOCC4)nc23)ccc1C(=O)NC1CC1 [Example C94] | > 500 nM | > 500 nM | > 7.00 | > 500 nM |  |  | 
Cc1cc(-c2cnn3c(NCC4(O)CCOCC4)cc(NC4CCCC4)nc23)ccc1C(=O)NC1CC1 [Example C95] | 100 to 500 nM | > 500 nM | > 7.00 | > 500 nM |  |  | 
Cc1cc(-c2cnn3c(NCCN4CCOCC4)cc(Oc4cccc(N(C)C)c4)nc23)ccc1C(=O)NC1CC1 [Example C96] | > 500 nM | > 500 nM | > 7.00 | > 500 nM |  |  | 
Cc1cc(-c2cnn3c(NCCN4CCOCC4)cc(Oc4cccc(Cl)c4)nc23)ccc1C(=O)NC1CC1 [Example C97] | ≤ 100 nM | 100 to 500 nM | > 7.00 | 100 to 500 nM |  |  | 
Cc1cc(-c2cnn3c(NCC4(O)CCOCC4)cc(Oc4cccnc4)nc23)ccc1C(=O)NC1CC1 [Example C98] | 100 to 500 nM | > 500 nM | > 7.00 | > 500 nM |  |  | 
Cc1cc(-c2cnn3c(NCC4(CO)CCOCC4)cc(Oc4cccnc4)nc23)ccc1C(=O)NC1CC1 [Example C99] | 100 to 500 nM | > 500 nM | > 7.00 | > 500 nM |  |  | 
Cc1cc(-c2cnn3c(NCC4CCOCC4)cc(NCC4CC4)nc23)ccc1C(=O)NC1CC1 [Example C103] | ≤ 100 nM | 100 to 500 nM | > 7.00 | 100 to 500 nM |  |  | 
COC[C@@H](Nc1cc(NCC2CCOCC2)n2ncc(-c3ccc(C(=O)NC4CC4)c(C)c3)c2n1)C(C)C [Example C104] | ≤ 100 nM | 100 to 500 nM | > 7.00 | 100 to 500 nM |  |  | 
O=C(NC1CC1)c1ccc(-c2cnn3c(NCCN4CCOCC4)cc(Oc4ccccc4)nc23)cc1Cl [Example C105] | ≤ 100 nM | ≤ 100 nM | > 7.00 | ≤ 100 nM |  |  | 
Cc1cc(-c2cnn3c(NCC4CCOCC4)cc(N[C@H]4COC[C@H]4O)nc23)ccc1C(=O)NC1CC1 [Example C107] | 100 to 500 nM | > 500 nM | > 7.00 | 100 to 500 nM |  |  | 
COCCNc1cc(N[C@H]2CCCC[C@H]2O)nc2c(-c3ccc(C(=O)NC4CC4)c(C)c3)cnn12 [Example C108] | ≤ 100 nM | ≤ 100 nM | > 7.00 | 100 to 500 nM |  |  | 
Cc1cc(-c2cnn3c(NCC4CCOCC4)cc(NC4CCC4)nc23)ccc1C(=O)NC1CC1 [Example C109] | ≤ 100 nM | 100 to 500 nM | > 7.00 | 100 to 500 nM |  |  | 
Cc1cc(-c2cnn3c(NCC4CCOCC4)cc(N[C@H](C(N)=O)C(C)C)nc23)ccc1C(=O)NC1CC1 [Example C111] | 100 to 500 nM | 100 to 500 nM | > 7.00 | 100 to 500 nM |  |  | 
Cc1cc(-c2cnn3c(NCC4CCOCC4)cc(NCC4(CO)CC4)nc23)ccc1C(=O)NC1CC1 [Example C113] | 100 to 500 nM | 100 to 500 nM | > 7.00 | 100 to 500 nM |  |  | 
Cc1cc(-c2cnn3c(NCC4CCOCC4)cc(NCCN4CCOCC4)nc23)ccc1C(=O)NC1CC1 [Example C114] | > 500 nM | > 500 nM | > 7.00 | > 500 nM |  |  | 
Cc1cc(-c2cnn3c(NCC4CCOCC4)cc(N[C@@H](CO)C(C)C)nc23)ccc1C(=O)NC1CC1 [Example C121] | 100 to 500 nM | > 500 nM | > 7.00 | 100 to 500 nM |  |  | 
Cc1cc(-c2cnn3c(NCC4CCOCC4)cc(N[C@H]4CCC[C@@H]4O)nc23)ccc1C(=O)NC1CC1 [Example C123] | ≤ 100 nM | 100 to 500 nM | > 7.00 | ≤ 100 nM |  |  | 
Cc1cc(-c2cnn3c(NCC4CCOCC4)cc(N[C@@H]4CCCC[C@H]4O)nc23)ccc1C(=O)NC1CC1 [Example C124] | 100 to 500 nM | 100 to 500 nM | > 7.00 | 100 to 500 nM |  |  | 
Cc1cc(-c2cnn3c(NCC4CCOCC4)cc(N[C@H]4CCCC[C@@H]4O)nc23)ccc1C(=O)NC1CC1 [Example C125] | ≤ 100 nM | 100 to 500 nM | > 7.00 | ≤ 100 nM |  |  | 
Cc1cc(-c2cnn3c(NCC4CCOCC4)cc(N[C@H]4CCC[C@@H]4O)nc23)ccc1C(=O)NC1CC1 [Example C126] |  |  | > 7.00 |  | ≤ 100 nM | ≤ 100 nM | ≤ 100 nM
CC[C@H](Nc1cc(NCC2CCOCC2)n2ncc(-c3ccc(C(=O)NC4CC4)c(C)c3)c2n1)C(C)(C)O [Example C127] | ≤ 100 nM | 100 to 500 nM | > 7.00 | 100 to 500 nM |  |  | 
Cc1cc(-c2cnn3c(NCC4CCOCC4)cc(N[C@H]4CCCC[C@H]4CO)nc23)ccc1C(=O)NC1CC1 [Example C131] | 100 to 500 nM | > 500 nM | > 7.00 | 100 to 500 nM |  |  | 
Cc1cc(-c2cnn3c(NCCCn4ccnc4)cc(N[C@H]4CCCC[C@H]4O)nc23)ccc1C(=O)NC1CC1 [Example C132] | > 500 nM | > 500 nM | > 7.00 | 100 to 500 nM |  |  | 
